Laboratory results reported in US8790724B2, “Formulation of dual cycloxygenase (COX) and lipoxygenase (LOX) inhibitors for mammal skin care” (Unigen, Inc., priority 2003, dated 2014).
pIC50: −log10 of the molar value. Read-outs that look alike come from different tables or passages of the source.

What was measured:
recombinant ovine COX-2 = target: T1, recombinant ovine COX-2 (Ovis aries, UniProt P79208); assay: Inhibition of COX-2 peroxidase activity, TMPD assay (Example 3); format: biochemical; conditions: IC50 normalized to the number of enzyme units
T1 construct: purchased Cayman
T1 sequence (P79208 17-603): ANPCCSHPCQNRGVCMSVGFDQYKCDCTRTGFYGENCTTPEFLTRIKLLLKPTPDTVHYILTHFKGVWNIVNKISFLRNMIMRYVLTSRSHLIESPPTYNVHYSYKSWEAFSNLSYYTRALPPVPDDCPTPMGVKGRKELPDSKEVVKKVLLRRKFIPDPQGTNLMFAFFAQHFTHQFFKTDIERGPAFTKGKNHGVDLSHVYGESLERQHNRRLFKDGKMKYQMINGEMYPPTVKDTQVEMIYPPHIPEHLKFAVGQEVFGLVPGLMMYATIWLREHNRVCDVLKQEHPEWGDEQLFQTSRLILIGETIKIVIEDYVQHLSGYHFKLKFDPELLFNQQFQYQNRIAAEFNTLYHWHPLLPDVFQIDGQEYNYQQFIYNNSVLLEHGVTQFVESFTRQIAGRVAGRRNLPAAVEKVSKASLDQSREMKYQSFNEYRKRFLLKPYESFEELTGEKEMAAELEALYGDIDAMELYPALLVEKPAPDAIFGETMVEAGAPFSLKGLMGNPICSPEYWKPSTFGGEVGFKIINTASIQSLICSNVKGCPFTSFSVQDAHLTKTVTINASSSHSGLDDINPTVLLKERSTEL
Source text: (§1) In order to screen for compounds that inhibited the COX-1 and COX-2 activities, a high throughput, in vitro assay was developed that utilized the inhibition of the peroxidase activity of both enzymes. […] Briefly, the composition or compound being examined was titrated against a fixed amount of COX-1 and COX-2 enzymes. A cleavable, peroxide chromophore was included in the assay to visualize the peroxidase activity of each enzyme in presence of arachidonic acid as a cofactor. Typically, assays were performed in a 96-well format. Each inhibitor, taken from a 10 mg/mL stock solution in 100% DMSO, was tested in triplicate at room temperature using the following range of concentrations: 0, 0.1, 1, 5, 10, 20, 50, 100, and 500 μg/mL. […] The components were mixed for 10 seconds on a rotating platform, followed by the addition of 20 μL of 2 mM N,N,N′N′-tetramethyl-p-phenylenediamine dihydrochloride (TMPD) and 20 μL of 1.1 mM arachidonic acid to initiate the reaction. The plate was shaken for 10 seconds and then incubated 5 minutes before reading the absorbance at 570 nm. The inhibitor concentration vs. % inhibition was plotted and the IC50 determined by taking the half-maximal point along the isotherm and intersecting the concentration on the X-axis. The IC50 was then normalized to the number of enzyme units in the assay.

recombinant ovine COX-1 = target: T2, recombinant ovine COX-1 (Ovis aries, UniProt P05979); assay: Inhibition of COX-1 peroxidase activity, TMPD assay (Example 3); format: biochemical
T2 sequence (P05979 25-600): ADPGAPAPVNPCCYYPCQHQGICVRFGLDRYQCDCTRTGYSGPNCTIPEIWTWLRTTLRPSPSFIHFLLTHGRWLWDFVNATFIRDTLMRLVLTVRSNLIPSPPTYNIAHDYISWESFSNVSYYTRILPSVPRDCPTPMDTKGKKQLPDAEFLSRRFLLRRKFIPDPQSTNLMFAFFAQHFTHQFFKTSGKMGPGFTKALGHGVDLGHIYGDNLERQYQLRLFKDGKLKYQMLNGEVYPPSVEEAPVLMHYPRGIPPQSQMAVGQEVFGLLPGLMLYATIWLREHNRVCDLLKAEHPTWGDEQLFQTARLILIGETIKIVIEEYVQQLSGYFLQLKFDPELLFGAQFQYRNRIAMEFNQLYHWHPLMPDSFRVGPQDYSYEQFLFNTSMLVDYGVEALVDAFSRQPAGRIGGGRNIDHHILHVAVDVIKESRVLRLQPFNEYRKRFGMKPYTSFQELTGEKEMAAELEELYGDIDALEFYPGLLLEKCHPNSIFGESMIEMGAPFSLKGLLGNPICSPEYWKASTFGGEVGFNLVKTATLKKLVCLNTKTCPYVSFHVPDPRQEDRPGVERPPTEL
Source text: as §1

[1] = system: prostaglandin endoperoxide synthase; conditions: Kalkbrenner et al. (1992); cited from earlier work
COX-1 = conditions: cited from earlier work
[2] = system: cox-2 gene transcription in human colon cancer DLD-1 cells; conditions: Mutoh et al. (2000), read-out: IC50 suppression of cox-2 gene transcription; cited from earlier work
[3] = system: carrageenin-induced mouse paw edema; conditions: oral administration, 100 mg/kg; Min et al. (1999); cited from earlier work
[4] = system: LTB4 (5-LOX pathway) in HT-29 cells; assay: Competitive ELISA for LTB4 in HT-29 cells; format: cell-based; conditions: Homo sapiens, 3 μg/mL, 48 hrs, read-out: inhibition of LTB4 production in HT-29 cells
Protocol: A Soliprin™ formulation (80:20) was prepared as described in Example 9. (See also Example 14 of U.S. patent application Ser. […] The sample was titrated in tissue culture media containing THP-1 or HT-29 cells; monocyte cell lines that express COX-1, COX-2 and 5-LOX. A competitive ELISA for Leukotriene B4 (LTB4; Neogen, Inc., Cat #406110) was used to assess the effect of this Soliprin™ formulation on newly synthesized levels of LTB4 present in each cell line as a measure Soliprin™'s inhibitory effect on the 5-LOX pathway. The assay was performed in duplicate by adding 160,000 to 180,000 cells per well in 6-well plates. […] Each treated cell line was then harvested by centrifugation and disrupted by gentle dounce homogenization lysis in physiological buffers.

## O=C(O)[C@H]1O[C@@H](Oc2cc3oc(-c4ccccc4)cc(=O)c3c(O)c2O)[C@H](O)[C@@H](O)[C@@H]1O [Baicalin]
Recombinant ovine COX-2
  IC50 for COX-2: 0.28 μg/mL/unit
Recombinant ovine COX-1; peroxidase activity, IC50 normalized to the number of enzyme units
  IC50 for COX-1: 0.44 μg/mL/unit of enzyme

## Oc1cc(O)c2c(c1)OC(c1ccc(O)c(O)c1)C(O)C2 (stereo not drawn) [Catechin]
[1]
  pIC50: 4.40
COX-1; isolated from the bark of Ceiba pentandra, Noreen et al. (1998) J. Nat. Prod. 61:8-12
  pIC50: 4.10
[2]
  pIC50: 3.38

## Oc1ccc([C@H]2Oc3cc(O)cc(O)c3C[C@H]2O)cc1 [Epiafzelechin]
COX-1; isolated from Celastrus orbiculatus, Min et al. (1999)
  pIC50: 4.82
[3]
  anti-inflammatory activity against carrageenin-induced mouse paw edema: demonstrated anti-inflammatory activity

## CC(C)Cc1ccc(C(C)C(=O)O)cc1 (stereo not drawn) [Ibuprofen, ibuprofen]
[4]
  inhibition at 3 µg/mL: 20%

## COc1c(O)cc(O)c2c(=O)cc(-c3ccccc3)oc12 [Wogonin]
Recombinant ovine COX-1; purified Free-B-Ring flavonoids, concentration not given
  Inhibition of COX-1: 16%
